The values below come from PMC7180830, “Scaffold Hopping in Discovery of HIV-1 Non-Nucleoside Reverse Transcriptase Inhibitors: From CH(CN)-DABOs to CH(CN)-DAPYs” (Molecules, 2020).

Molecules are shown by their SMILES.

For one series, the system named is HIV-1 IIIB. Kind of series: Anti-HIV assay against wild-type HIV-1 (IIIB) in MT-4 cells, MTT method. Type of series: cell-based. The note with it: for SI (selectivity index, ratio CC50/EC50 (WT)): CC50/EC50 WT HIV-1 IIIB, MT-4 cells; for EC50: Human immunodeficiency virus 1, IIIB, MT4, read-out: EC50 HIV-1 IIIB. On the procedure:
(§1) Untreated HIV- and mock-infected cell samples were included as controls. […] Five days after infection, the viability of mock- and HIV-infected cells was examined spectrophotometrically using the MTT assay. […] All data were calculated using the median absorbance value of three wells.

Series [1] is described as follows: Cytotoxicity in mock-infected MT-4 cells, MTT method. Particulars: human, mock-infected (uninfected) MT-4 cells. On the procedure: as §1
For a further series, the system named is MT-4 cells. The series is described as above. The note with it: MT-4 cells; relative to RPV CC50. On the procedure:
as §1

The subject of series [2] is HIV-1 L100I mutant strain. As to the kind of experiment: Anti-HIV assay against L100I mutant strain in MT-4 cells. Type of series: cell-based. Particulars: Human immunodeficiency virus 1, MT4, read-out: EC50 L100I.
Protocol: (§2) Evaluation of the antiviral activity of the compounds against HIV in MT-4 cells was performed using the MTT assay as previously described [24, 25]. […] Prior to use in our assays, every freshly grown virus stock was the subject of a genotypic analysis. In addition to the genotypic analysis, every stock was subject to a phenotypic analysis using a panel of relevant reference compounds in MT-4 cells. […] Stock solutions (10× final concentration) of test compounds were added in 25 μL volumes to two series of triplicate wells so as to allow simultaneous evaluation of their effects on mock- and HIV-infected cells at the beginning of each experiment. Serial 5-fold dilutions of test compounds were made directly in flat-bottomed 96-well microtiter trays using a Biomek 3000 robot (Beckman instruments, Fullerton, CA). Untreated HIV- and mock-infected cell samples were included as controls. HIV stock (50 μL) at 100–300 CCID50 (50% cell culture infectious doses) and culture medium (final 200 μL volume per well) were added to either the infected or mock-infected wells of the microtiter tray. Mock-infected cells were used to evaluate the effects of test compounds on uninfected cells in order to assess the cytotoxicity of the test compounds. Exponentially growing MT-4 cells were centrifuged for 5 min at 220× g and the supernatant was discarded. The MT-4 cells were resuspended at 6 × 10^5 cells/mL and 50 μL volumes were transferred to the microtiter tray wells. Five days after infection, the viability of mock- and HIV-infected cells was examined spectrophotometrically using the MTT assay. The MTT assay is based on the reduction of yellow colored 3-(4,5-dimethylthiazol-2-yl)-2,5-diphenyltetrazolium bromide (MTT) (Acros Organics, Geel, Belgium) by mitochondrial dehydrogenase activity in metabolically active cells to a blue-purple formazan that can be measured spectrophotometrically. The absorbances were read in an eight-channel computer-controlled photometer (Infinite M1000, Tecan, Männedorf, Switzerland) at two wavelengths (540 and 690 nm). All data were calculated using the median absorbance value of three wells.
The test system of series [3] is HIV-1 K103N mutant strain. As to the kind of experiment: Anti-HIV assay against K103N mutant strain in MT-4 cells. Type of series: cell-based. Particulars: Human immunodeficiency virus 1, MT4, read-out: EC50 K103N.
Protocol: as §2
The test system of series [4] is HIV-1 Y181C mutant strain. As to the kind of experiment: Anti-HIV assay against Y181C mutant strain in MT-4 cells. It counts as cell-based. The note with it: Human immunodeficiency virus 1, MT4, read-out: EC50 Y181C.
Protocol: as §2
Series [5] deals with HIV-1 E138K mutant strain. As to the kind of experiment: Anti-HIV assay against E138K mutant strain in MT-4 cells. Type of series: cell-based. Particulars: Human immunodeficiency virus 1, MT4, read-out: EC50 E138K.
Protocol: as §2
Series [6] deals with HIV-1 F227L + V106A mutant strain. Kind of series: Anti-HIV assay against double mutant F227L + V106A in MT-4 cells. Type of series: cell-based. Particulars: Human immunodeficiency virus 1, MT4, read-out: EC50 F227L + V106A.
Protocol: as §2
Series [7] relates to HIV-1 K103N + Y181C mutant strain. As to the kind of experiment: Anti-HIV assay against double mutant K103N + Y181C in MT-4 cells. It counts as cell-based. Particulars: Human immunodeficiency virus 1, MT4, read-out: EC50 K103N + Y181C.
Protocol: as §2
A further series addresses T1, WT HIV-1 RT (Human immunodeficiency virus type 1 group M subtype B, UniProt P03366).
T1 construct: Recombinant wild type p66/p51 HIV-1 RT; made in house
As to the kind of experiment: Reverse transcriptase assay (EnzCheck kit, PicoGreen). It counts as biochemical. Particulars: recombinant wild type p66/p51 HIV-1 RT.

Protocol for WT HIV-1 RT: The RT assay was performed with the EnzCheck Reverse Transcriptase Assay kit (Molecular Probes, Invitrogen), as described by the Manufacturer. The assay is based on the dsDNA quantitation reagent PicoGreen. […] This condition is met in the assay. A poly(rA) template of approximately 350 bases long and an oligo (dT)16 primer are annealed in a molar ratio of 1:1.2 (60 min at room temperature). Then, 52 ng of the RNA/DNA is brought into each well of a 96-well plate in a volume of 20 μL polymerization buffer (60 mM Tris-HCl, 60 mM KCl, 8 mM MgCl2, 13 mM DTT, 100 μM dTTP, pH 8.1). Then, 5 μL of RT enzyme solution, diluted to a suitable concentration in enzyme dilution buffer (50 mM Tris-HCl, 20% glycerol, 2 mM DTT, pH 7.6), is added. The reactions are incubated at 25 °C for 40 min and then stopped by the addition of EDTA (15 mM fc). Heteroduplexes are then detected by addition of PicoGreen. Signals are read using an excitation wavelength of 490 nm and emission detection at 523 nm using a spectrofluorometer (Safire 2, Tecan). To test the activity of compounds against RT, 1 μL of compound in DMSO was added to each well before the addition of RT enzyme solution. Control wells without compound contained the same amount of DMSO. Results are expressed as relative fluorescence, i.e., the fluorescence signal of the reaction mix with compound divided by the signal of the same reaction mix without compound.

With `COc1cc(C#N)ccc1C(C#N)c1ccnc(Nc2ccc(C#N)cc2)n1` (centres unmarked) [Compound A5, 4-(4-(cyano-(2-methoxy-4-cyanophenyl)methyl)-pyrimidin-2-ylamino)benzonitrile], the melting point was 189.4 to 190.1 °C. In the series on HIV-1 IIIB, the “SI (selectivity index, ratio CC50/EC50 (WT))” value was 434 and the EC50 is 59 ± 11 nM. Also, the “fold higher activity than the 3-substituted analogue (A4)” value in the series on HIV-1 IIIB (WT HIV-1 IIIB, relative to A4) is 200 fold. Moreover, the 50% cytotoxic concentration (CC50) at 5 days in [1] was determined as 25800 ± 8700 nM. Also, the “CC50 fold higher than that of RPV” value in the series on MT-4 cells was “about 5 fold”. Further, the half-maximal effective concentration (EC50) in series [2] turned out to be 4720 ± 790 nM. Also, the EC50 in [3] turned out to be 680 ± 160 nM. The EC50 in series [4] was determined as 1250 ± 580 nM. Moreover, the concentration for a half-maximal effect (EC50) in [5] is 1630 ± 320 nM. In addition, the half-maximal effective concentration (EC50) in series [6] was no less than 12400 nM. In addition, in [7], the half-maximal effective concentration (EC50) was greater than 25800 nM.

Compound `Cc1cc(C#N)c(Br)cc1C(C#N)c1nc(Nc2ccc(C#N)cc2)ncc1C` (centres unmarked) [Compound B6, 4-(4-(cyano-(2-methyl-5-bromo-4-cyanophenyl)methyl)-5-methylpyrimidin-2-ylamino)benzonitrile] showed a melting point of 232.3 to 233.9 °C. In the series on HIV-1 IIIB, the “SI (selectivity index, ratio CC50/EC50 (WT))” value was determined as 1215 and the EC50 was 8 ± 4 nM. Also, the CC50 at 5 days in [1] came out at 9800 ± 3500 nM. Also, the EC50 in [2] is 860 ± 190 nM. For the same compound, in series [3], the EC50 worked out at 60 ± 10 nM. In addition, the 50% effective concentration (EC50) in series [4] came out at 330 ± 100 nM. The EC50 in [5] was determined as 170 ± 60 nM. Moreover, the EC50 in series [6] was 1520 ± 150 nM. For the same compound, the EC50 in series [7] was greater than 9790 nM. The IC50 at WT HIV-1 RT is 60 ± 20 nM.

`Cc1cnc(Nc2ccc(C#N)cc2)nc1C(C#N)c1ccc(C#N)c(Cl)c1C` (centres unmarked) [Compound B5, 4-(4-(cyano-(2-methyl-3-chloro-4-cyanophenyl)methyl)-5-methylpyrimidin-2-ylamino)benzonitrile] returned a melting point of 205.4 to 206.5 °C. Further, in the series on HIV-1 IIIB, the “SI (selectivity index, ratio CC50/EC50 (WT))” value stood at 370 and the EC50 stood at 20 ± 8 nM. In addition, the CC50 at 5 days in series [1] came out at 8600 ± 2200 nM. The EC50 in [2] was determined as 1820 ± 400 nM. Moreover, the half-maximal effective concentration (EC50) in series [3] is 390 ± 70 nM. Besides, the concentration giving a half-maximal response (EC50) in series [4] came to 1020 ± 200 nM. Also, in series [5], the EC50 came to 600 ± 100 nM. Besides, in [6], the EC50 was 1660 ± 270 nM. The 50% effective concentration (EC50) in series [7] was greater than 8580 nM. Besides, the IC50 on WT HIV-1 RT was found to be 70 ± 20 nM.

As for `Cc1cnc(Nc2ccc(C#N)cc2)nc1C(C#N)c1ccc(C#N)cc1Br` (centres unmarked) [Compound B4, 4-(4-(cyano-(2-bromo-4-cyanophenyl)methyl)-5-methylpyrimidin-2-ylamino)benzonitrile], the EC50 in the series with HIV-1 IIIB was 6 ± 1 nM; in [2], 510 ± 190 nM; in [3], 80 ± 30 nM; in series [4] it was 160 ± 170 nM; in [5], 110 ± 40 nM; in [6], 2350 ± 180 nM. The EC50 in series [7] was greater than 6620 nM. Moreover, in series [1], it took 6600 ± 1300 nM to reach half-maximal cytotoxicity (CC50 at 5 days). At WT HIV-1 RT, the concentration for half-maximal inhibition (IC50) was 60 ± 30 nM.

Compound `Cc1cnc(Nc2ccc(C#N)cc2)nc1C(C#N)c1ccc(C#N)cc1` (centres unmarked) [Compound B1, 4-(4-(cyano-(4-cyanophenyl)methyl)-5-methylpyrimidin-2-ylamino)benzonitrile] yielded a melting point of 243.1 to 243.7 °C. Also, in the series on HIV-1 IIIB, the “SI (selectivity index, ratio CC50/EC50 (WT))” value turned out to be 356 and the EC50 was 300 ± 110 nM. Also, the half-maximal cytotoxic concentration (CC50) at 5 days in series [1] came to 109000 ± 80000 nM. Also, the 50% effective concentration (EC50) in series [2] worked out at 8030 ± 4430 nM. The EC50 in [3] was 3950 ± 220 nM. Besides, the concentration for a half-maximal effect (EC50) in series [4] was determined as 7050 ± 960 nM. Also, in series [5], the EC50 came to 4920 ± 300 nM. For the same compound, the EC50 in [6] is no less than 59000 nM. Further, the EC50 in [7] is greater than 109000 nM. The IC50 on WT HIV-1 RT came to 1460 ± 90 nM.

For `Cc1cnc(Nc2ccc(C#N)cc2)nc1C(C#N)c1ccc(C#N)cc1Cl` (centres unmarked) [Compound B3, 4-(4-(cyano-(2-chloro-4-cyanophenyl)methyl)-5-methylpyrimidin-2-ylamino)benzonitrile], the melting point is 213.6 to 214.2 °C. Also, in the series on HIV-1 IIIB, the “SI (selectivity index, ratio CC50/EC50 (WT))” value amounted to 920 and the EC50 was 10 ± 10 nM. In addition, the CC50 at 5 days in series [1] was determined as 9600 ± 2700 nM. In [2], the concentration giving a half-maximal response (EC50) was 820 ± 150 nM. Moreover, the half-maximal effective concentration (EC50) in series [3] was 80 ± 20 nM. In addition, the concentration for a half-maximal effect (EC50) in [4] was found to be 260 ± 20 nM. Also, the EC50 in [5] was 140 ± 30 nM. For the same compound, the half-maximal effective concentration (EC50) in series [6] was found to be 4040 ± 700 nM. Further, the concentration for a half-maximal effect (EC50) in series [7] was greater than 9560 nM. On WT HIV-1 RT, the IC50 was 50 ± 30 nM.

Consider `Cc1cnc(Nc2ccc(C#N)cc2)nc1C(C#N)c1ccc(C#N)cc1F` (centres unmarked) [Compound B2, 4-(4-(cyano-(2-fluoro-4-cyanophenyl)methyl)-5 methylpyrimidin-2-ylamino)benzonitrile], for which the EC50 was 40 ± 20 nM with HIV-1 IIIB; 3040 ± 1130 nM in series [2]; 1070 ± 370 nM in series [3]; 1590 ± 180 nM in [4]; 970 ± 140 nM in series [5]; greater than 20600 nM in series [6]. Also, in [7], the EC50 is greater than 20600 nM. The same compound yielded a CC50 at 5 days in series [1] of 20600 ± 3600 nM. The IC50 on WT HIV-1 RT came to 220 ± 50 nM.
